Measured values reported in patent publication US20180147183A1, “USE OF R-OXIRACETAM IN PHARMACEUTICAL FIELD” (Chongqing Runze Pharmaceutical Co., Ltd., priority 2015, published 2018).
Values joined by “and” are separate entries in the source; they are usually repeats but may differ in a detail not shown here. Equal values may be shown once. Marks after values point to notes of the source that are not given here.

Key:
[1] = Pharmacokinetics and bioavailability in dogs, plasma determined by LC-MS; assay type: in vivo, dog
Description: A. The Pharmacokinetics of R-Oxiracetam In Vivo and Studies of Bioavailability
4 Determination Methods of Oxiracetam and R-Oxiracetam in Plasma by LC-MS
4.1 Chromatographic Conditions
Mobile phase: methanol: water (5:95)
Column: ZORBAX SB-Aq (2.1×100 mm 3.5μ)
Column temperature: 30° C.;
Injection volume: […] 4.2 Mass Spectrometry Detection Parameters
Mass spectrometry ionization method: electrospray ionization (ESI); ion polarity Positive; scanning mode for multiple reactions monitoring (MRM); scanning time of 100 ms. The ionic reactions used for quantitative analysis were m/z (oxiracetam) m/z 159.0→m/z 113.9 and m/z 143.1→m/z 126.0 (piracetam), respectively.
20 μL of the drug-containing the plasma sample is taken in a 1.5 mL Eppendorf tube. 20 μL of piracetam (20 μg/mL) of the internal standard solution is added, and mixed by the vortex mixer for 30s. Then, 500 μL of acetonitrile is added thereto, vortex shaken for 5 min and centrifugated at 16000 rpm for 10 min. The supernatant from the centrifugation was passed through 1 ml of SPE C 18E column and the filtrate was collected, put into 38° C. constant temperature water bath and dried by nitrogen gas. 300 μL of mobile phase was dissolved and the injection volume was 10 μL.
20 μL of blank dog plasma was added into the working solution prepared from the oxiracetam standard. The concentrations of oxiracetam in the plasma were 0.167, 0.33, 0.37, 1.33, 2.67, 4.0, 6.67, 13.33 and 26.67 μg/mL, respectively. A sample was made for each concentration respectively according to the procedures“4.4 Extraction of plasma samples”. The ratio of the peak area (As) of oxiracetam to the peak area (Ai) of the internal standard piracetam (f=As/Ai) were calculated, and perform linear regression using the concentration (C) to the ratio (f). The weight parameter 1/x, and the oxiracetam regression equation: y=5.2117X−0.76985 (r=0.9970, weight 1/x).
20 μL of blank dog plasma was added into the working solution prepared from the R-oxiracetam standard. The concentrations of R-oxiracetam in the plasma were 0.167, 0.33, 0.37, 1.33, 2.67, 4.0, 6.67, 13.33 and 26.67 μg/mL, respectively. A sample was made for each concentration respectively according to the procedures “4.4 Extraction of plasma samples”. The ratio of the peak area (As) of R-oxiracetam to the peak area (Ai) of the internal standard piracetam (f=As/Ai) were calculated, and perform linear regression using the concentration (C) to the ratio (f). The weight parameter 1/x, and the oxiracetam regression equation: y=1.6811X−0.031244(r=0.9949, weight 1/x).

[2] = cited from earlier work
[3] = system: lithium chloride-pilocarpine epilepsy model rat; experiment: Lithium chloride-pilocarpine rat epilepsy model, prophylactic administration; assay type: in vivo, SD rats; conditions: 10 rats; for mortality rate: within 1 to 7 days after modeling
From the text: Stages: epileptic seizures evaluation are categorized by Racine Stages
Stage 0: no signs of any seizure;
Stage I: staring, head and face slightly trembling;
Stage II: head nodding or wet dog-like shaking;
Stage III: forelimb limit convulsions;
Stage IV: full-body ankylosing convulsions with a standing hind limb;
Stage V: full-body ankylosing clonic seizures with standing with fell;
Partial epilepsy seizure occurs when any one of Stage Ito Stage III appears;
Generalized epilepsy seizure occurs when Stage IV or Stage V appears;
Status epilepticus (SE) occurs when Stage IV or Stage V lasts 30 minutes.
The rat epilepsy models were treated with lithium chloride-pilocarpine and used levetiracetam as positive control. The duration of acute seizures of lithium chloride-pilocarpine epilepsy model rat was selected as the observation time, and prophylactic administration was used.
Animals were randomly divided into 4 groups, 10/group. Levetiracetam was selected as a positive control, 1.5 times of clinical dose were chosen, that is, 150 mg/kg. The clinical dose of an adult is 800 mg/times, twice daily, that is, 1600 mg/60 kg, 26.7 mg/kg. The dose of a rat is converted to 160 mg/kg according to body surface area. R-oxiracetam and levorotatory oxiracetam were selected half of the dose, that is, 80 mg/kg, and 1.5 times is 120 mg/kg. The dose was 1 ml/100 g, and the rats were treated with continuous administration for 7 days. As levetiracetam administration of 1.3 h (80 min), the plasma concentration peak, so we choose the last 80 minutes after the last administration of modeling. As administration of levetiracetam for 1.3 h (80 min), the plasma concentration peak was reached, so each group was selected after the last 80 minutes after the start of modeling.
Modeling method: After several previous test, the following modeling method was chosen: Animal ip. Lithium chloride 3 mmol/kg (1.5 ml/L) 127 mg/kg (12.7 mg/ml, 1 ml/100 g body weight), 24 h, 37.5 mg/kg pilocarpine three times ip. mg/kg (2.5 mg/ml, 0.5 ml/100 g body weight) at intervals of 10 minutes. […]

[4] = system: Pentetrazol (PTZ) ignited rat epilepsy model; experiment: Pentetrazol (PTZ)-ignited rat epilepsy model; assay type: in vivo, SD rats; conditions: for Seizure latency (X ± SD) / occurrence rates of stage IV or above seizures: 500 mg/kg daily
Description: Rats were injected intraperitoneally with PTZ at a dose of 35 mg/kg (7 mg/ml, 0.5 ml/100 g body weight) for sub-convulsions three times weekly. The animals are weighed before each ip, and observed for behavioral changes after ip. within 1-2 h. Behavioral scoring was carried out according to the revised Racine score. Three consecutive occurrences of seizures of stage IV and above indicate successful ignition.
The animals successfully ignited were chosen to be grouped. The animals were randomly divided into 4 groups, 8-10/group. […] 3 times of clinical dose were chosen, that is, 500 mg/kg. […] The dosage is 1 ml/100 g, continuous intragastrical administration of 10 days. Specific dose settings are as follows:
PTZ 35 mg/kg. The animals are observed for behavioral changes within 2 h. Behavioral scoring was carried out according to the revised Racine score, continuous administration for 10 days, grading standards as mentioned above.
The seizures were recorded daily ip PTZ within 2 h. The seizure levels, latencies, mortality were recorded, and compared with the model control group.

[5] = 150 mg/kg for 7 days before modeling
[6] = 120 mg/kg for 7 days before modeling

For `NC(=O)CN1CC(O)CC1=O` (racemic) [oxiracetam], the “Concentration in dog blood C” value ([1]; Time 0 h, individual dogs, one table per dog) was 0 ng/mL, the “Concentration in dog blood C” value ([1]; Time 0.25 h, individual dogs, one table per dog) was 5123 ng/mL and -4948 ng/mL and 7540 ng/mL and -4135 ng/mL and 5092 ng/mL and the “Concentration in dog blood C” value ([1]; Time 0.5 h, individual dogs, one table per dog) was 41650 ng/mL and 36440 ng/mL and 42030 ng/mL and 41740 ng/mL and 42350 ng/mL. The “Concentration in dog blood C” value ([1]; Time 1 h, individual dogs, one table per dog) was 106427.1 ng/mL and 101410.1 ng/mL and 79361 ng/mL and 58870 ng/mL and 139963.8 ng/mL and 290065.6 ng/mL, the “Concentration in dog blood C” value ([1]; Time 1.25 h, individual dogs, one table per dog) was 104196 ng/mL and 77730 ng/mL and 107177.3 ng/mL and 68450 ng/mL and 302273 ng/mL and 142365.9 ng/mL and the “Concentration in dog blood C” value ([1]; Time 1.5 h, individual dogs, one table per dog) was 122326.7 ng/mL and 104856.7 ng/mL and 96860 ng/mL and 192364.2 ng/mL and 186435.5 ng/mL. For the same compound, the “Concentration in dog blood C” value ([1]; Time 2 h, individual dogs, one table per dog) was 161110.6 ng/mL and 146146.6 ng/mL and 100650 ng/mL and 207535.1 ng/mL and 137414 ng/mL and 228058.3 ng/mL, the “Concentration in dog blood C” value ([1]; Time 4 h, individual dogs, one table per dog) was 52390 ng/mL and 40540 ng/mL and 28940 ng/mL and 42680 ng/mL and 21070 ng/mL and 33010 ng/mL and the “Concentration in dog blood C” value ([1]; Time 6 h, individual dogs, one table per dog) was 8396 ng/mL and 4367 ng/mL and 4934 ng/mL and 7743 ng/mL and 29760 ng/mL and 8301 ng/mL. For the same compound, the “Concentration in dog blood C” value ([1]; Time 8 h, individual dogs, one table per dog) was -3894 ng/mL and -4318 ng/mL and -4781 ng/mL and -745.6 ng/mL and -465.7 ng/mL, the “Concentration in dog blood C” value ([1]; Time 12 h, individual dogs, one table per dog) was -4730.8 ng/mL and -4338 ng/mL and -8257 ng/mL and -2959 ng/mL and -6329 ng/mL and -958.4 ng/mL and the “Concentration in dog blood C” value ([1]; Time 24 h, individual dogs, one table per dog) was 0 ng/mL and 21660 ng/mL. The concentration at 0 h ([1]; dog, plasma, Time 0 h, individual dogs, one table per dog, read-out: Concentration in dog blood C) was 0 ng/mL, the concentration at 0.25 h ([1]; dog, plasma, Time 0.25 h, individual dogs, one table per dog, read-out: Concentration in dog blood C) was 4890 ng/mL and the concentration at 0.5 h ([1]; dog, plasma, Time 0.5 h, individual dogs, one table per dog, read-out: Concentration in dog blood C) was 28200 ng/mL. It also gave a concentration at 1.5 h ([1]; dog, plasma, Time 1.5 h, individual dogs, one table per dog, read-out: Concentration in dog blood C) of 148000 ng/mL, a concentration at 8 h ([1]; dog, plasma, Time 8 h, individual dogs, one table per dog, read-out: Concentration in dog blood C) of 3120 ng/mL and a Cmax ([1]; dog, plasma, dogs, mean ± SD) of 202000 ± 79500 ng/mL.
In the case of `CC[C@@H](C(N)=O)N1CCCC1=O` [Levetiracetam], the “time of plasma concentration peak after administration” value ([2]; in vivo) is listed as 1.3 h, the “Latency Stage I” value [3, 5] is listed as 17.6 ± 4.1 min and the “Latency Stage II” value [3, 5] is listed as 22.6 ± 5.8 min. The “Latency Stage III” value [3, 5] was 34.6 ± 9.4 min, the “Latency Stage IV” value [3, 5] was 33.6 ± 8.3 min and the “Latency Stage V” value [3, 5] was 74.3 ± 24.3 min. For the same compound, the “Number of Deaths” value [3, 5] was 5, the “Number of SE Animals” value [3, 5] was 7 and the “Number of seizures Stage I” value [3, 5] was 1.8 ± 0.8 times. The “Number of seizures Stage II” value [3, 5] was 4.4 ± 3.7 times, the “Number of seizures Stage III” value [3, 5] was 3.6 ± 2.3 times and the “Occurrence rate Stage I” value [3, 5] was 10%. For the same compound, the “Occurrence rate Stage II” value [3, 5] was 9%, the “Occurrence rate Stage III” value [3, 5] was 8% and the “Occurrence rate Stage IV” value [3, 5] was 7%. For the same compound, the “Occurrence rate Stage V” value [3, 5] was 7%, the “duration Stage IV” value [3, 5] was 23.3 ± 6.6 min and the “duration Stage V” value [3, 5] was 63.3 ± 19.0 min. The mortality rate [3, 5] was 50%.
In the case of `NC(=O)CN1C[C@@H](O)CC1=O` [S-oxiracetam], the “Latency Stage I” value [3, 6] is reported as 16.9 ± 5.4 min, the “Latency Stage II” value [3, 6] is reported as 26.7 ± 6.5 min and the “Latency Stage III” value [3, 6] is reported as 35.4 ± 5.8 min. The “Latency Stage IV” value [3, 6] was 37.8 ± 7.4 min, the “Latency Stage V” value [3, 6] was 64.5 ± 23.2 min and the “Number of Deaths” value [3, 6] was 3. For the same compound, the “Number of SE Animals” value [3, 6] was 4, the “Number of seizures Stage I” value [3, 6] was 2.2 ± 1.0 times and the “Number of seizures Stage II” value [3, 6] was 5.2 ± 3.1 times. For the same compound, the “Number of seizures Stage III” value [3, 6] was 5.6 ± 4.2 times, the “Occurrence rate Stage I” value [3, 6] was 10% and the “Occurrence rate Stage II” value [3, 6] was 10%. The “Occurrence rate Stage III” value [3, 6] was 5%, the “Occurrence rate Stage IV” value [3, 6] was 4% and the “Occurrence rate Stage V” value [3, 6] was 4%. For the same compound, the “duration Stage IV” value [3, 6] was 27.5 ± 12.1 min, the “duration Stage V” value [3, 6] was 79.8 ± 29.5 min and the mortality rate [3, 6] was 30%.
In the case of `CCCC(CCC)C(=O)[O-].[Na+]` [Sodium valproate, reference compound], the bioavailability ([2]; oral administration) is listed as about 100%, the “Seizure latency (X ± SD)” value ([4]; D1) is listed as 4.00 ± 1.41 m and the “occurrence rates of stage IV or above seizures” value (from here on “occurrence rates”) ([4]; D1) is listed as 4/6 (66.7) %. For the same compound, the “Seizure latency (X ± SD)” value ([4]; D2) was 5.67 ± 2.25 m, the “occurrence rates” value ([4]; D2) was 3/6(50.0) % and the “Seizure latency (X ± SD)” value ([4]; D3) was 5.67 ± 1.37 m. For the same compound, the “occurrence rates” value ([4]; D3) was 3/6 (50.0) %, the “Seizure latency (X ± SD)” value ([4]; D4) was 6.33 ± 1.63 m and the “occurrence rates” value ([4]; D4) was 2/6 (33.3) %. The “occurrence rates” value ([4]; D5) was 2/6 (33.3) %, the “occurrence rates” value ([4]; D6) was 2/6 (33.3) % and the “occurrence rates” value ([4]; D7) was 1/6* (16.7) %. For the same compound, the “occurrence rates” value ([4]; D8) was 0/6** (0) %, the “occurrence rates” value ([4]; D9) was 1/6 (16.7) % and the “Seizure latency (X ± SD)” value ([4]; D10) was 8.33 ± 0.82 m. The “occurrence rates” value ([4]; D10) was 0/6* (0) %, the mortality rate ([4]; 500 mg/kg intragastric, 10 days) was 0% and the “Numbers of deaths (Number)” value ([4]; 500 mg/kg intragastric, 10 days, 6 animals) was 0.
